Results on one compound are retold here after patent US9642829B2, “Antifungal compound and uses thereof” (The University of Hong Kong, priority 2012, dated 2017).

One data set relates to Vero cell line. Kind of data set: Cytotoxicity assay. It counts as cell-based. Particulars: at effective concentration.
A further data set relates to C. albicans. Briefly: Yeast-to-hypha (Y-H) transition inhibition under strong hyphal inducing conditions. The format is cell-based, Candida albicans. Also noted: Y-Hi (yeast-to-hypha inhibitory activity): unit: μg/ml. An excerpt:
A large collection of small molecule library was screened in search of inhibitors of yeast-to-hypha transition (Y—H) of C. albicans using 384-well plate-high throughout assays (HTS). […] After subsequent studies with robust Y—H inducing conditions, we herein report a novel small molecule SM21 (FIG. 1) with strong Y-Hi activity and antifungal-activity.
Several environmental conditions which are known to induce the hyphal formation of C. albicans such as serum, Lee's medium, Spider medium, temperature and 37° C. were used to test the ability of SM21 to inhibit Y—H transition. […] SM21 could act as a Y-Hi at a lower concentration of 0.025 μg/ml and 0.0.5 μg/ml for 10^4 cells/ml and 10^6 cells/ml of C. albicans, respectively. Chemical structure of SM21 is shown in (F)

Data set [1] has as its system mixed species Candida biofilms. Kind of data set: Mixed species Candida biofilm MIC, XTT reduction assay. Particulars: 48 h mixed species biofilms, two Candida species at 1×10^7 cells/ml each. The format is cell-based. How it is done: Clinical studies have shown that some of the Candida species could involve mixed Candida species such as C. albicans with non-albicans Candida species. Therefore, next we formed mixed species biofilms using the methods we have used in our previous published studies. This methodology is essentially similar to what mentioned under mono-species biofilms except initial inoculums involve two Candida species at equal inoculums size of 1×10^7 cells/ml. After 48 h of growth, mixed species Candida biofilms were subjected to serially diluted concentration of SM21 and MIC was determined by XTT reduction assay (FIG. 5).

For data set [2], the system named is human gingival fibroblasts. Briefly: Cytotoxicity assay (MTT reduction, FIG. 6). It counts as cell-based. Particulars: primary human gingival fibroblasts; at effective concentration. How it is done: (§1) FIG. 6. MTT reduction assay of primary culture human monocytes, gingival fibroblasts and oral keratinocytes showing safety of SM21.
(§2) Next, we used mouse model and treated the animals with 100 times of the effective dose (2 μg) i.e. 200 μg of SM21 twice a day for five days.
(Formazan colour is commonly taken as a measure of viable cells.)

A further data set has as its system human monocytes. Briefly: Cytotoxicity assay (MTT reduction, FIG. 6). The following applies: primary human monocytes; at effective concentration. It counts as cell-based. The procedure:
as §1, §2

In the next data set the test system is human oral keratinocytes. Briefly: Cytotoxicity assay (MTT reduction, FIG. 6). Particulars: primary human oral keratinocytes; at effective concentration. It counts as cell-based. The procedure: as §1, §2
For a further data set, the system named is C. glabrata. Kind of data set: Antifungal susceptibility (MIC/MFC), CLSI criteria. Particulars: C. glabrata ATCC; 0.5 McFarland inoculum (10^6 cells/ml). The format is cell-based, Candida glabrata. How it is done: Antifungal activity of the small molecules was evaluated using USA standards, Clinical and Laboratory Standards Institute (CLSI) criteria. In brief, inocula from 24 h Candida cultures on Sabourauds's dextore agar were standardized to a turbidity equivalent of 0.5 McFarland standards at 520 nm with a spectrophotometer. The suspensions were further diluted in Rosewell Park Memorial Institute (RPMI) 1640 medium (Life technologies, New York, USA) to yield an inoculum concentration of approximately 0.5 1×10^3 to 2.5 1×10^3 cells/ml. Minimum inhibitory concentration (MIC) and minimum fungicidal concentration (MFC) assay was performed in 96-well plates (Iwaki, Tokyo, Japan) and each of the Candida species was exposed to a double dilution of SM21. Amphotericin B was used as a positive control. All the experiments were preformed three occasions with duplicates for all isolates. The plates were incubated at 35° C. for 48 h to evaluate MIC. In the case of Cryotococcus neoformans, reading were taken after 72 h. Aforementioned assay was performed for C. albicans ATCC 90028, C. albicans SC5314 and 10 C. albicans clinical isolates. Moreover, MIC/MFC determination was carried out for other fungal species such as C. glabrata, C. krusei, C. tropicalis, C. parapsilosis, C. neoformans, Aspergillus fumigates and Penicillium marneffei. […]

The subject of the next data set is C. albicans biofilms. Briefly: Mono species Candida biofilm MIC, XTT assay. The format is cell-based, Candida albicans. The procedure: For instance, we have previously shown the resistance of Candida biofilms against amphotericin and caspofungin. Therefore, next using standard biofilm assays we have established in our laboratory, we examined the effect of SM21 against Candida biofilms. In brief, Candida cells were grown in SDA medium at 37° C. for 18 h. Then a loopful of the yeast was inoculated into the yeast nitrogen base (YNB; Difco) medium supplemented with 50 mM glucose in a rotary shaker at 75 rpm. After overnight broth culture, the yeasts were harvested in the late exponential growth phase and washed twice with 20 ml of phosphate buffer saline (PBS; pH 7.2. 0.1 M) prior to use in the biofilm studies. Candida biofilms were developed according to a previously published protocol. In brief, washed yeast cells were resuspended in YNB supplemented with 100 mM glucose and adjusted to an optical density of 0.38 at 520 nm (1×10^7 cells/ml). The standard cell suspension was used immediately to develop biofilms on commercially available presterilized, polystyrene, 96-well plate (IWAKI, Tokyo, Japan). At first, 100 μl of standardized cell suspension (1×10^7 cells/ml) was pipetted into each well of a microtiter plate and incubated for 1.5 h at 37° C. in a shaker at 75 rpm to permit yeast adherence to the well surface (adherence phase). For controls, a well of each microtiter plate was handled in an identical fashion except that no Candida suspension was added. Following the adhesion phase, the cell suspensions were aspirated, and each well washed with 100 μl of PBS to remove loosely adherent cells. 200 μl of YNB with 100 mM glucose were then pipetted into each of the washed wells and the plates incubated at 37° C. in a shaker at 75 rpm for 24 or 48 h. After biofilm growth phase microscopic examination of the cultures were performed to rule out contamination. Then, the suspending medium was aspirated and biofilms were washed with 100 μl PBS to remove the nonadherent cells. The stock solutions were diluted twofold with RPMI 1640 supplemented with 2% glucose to obtain SM21 concentration from 100 to 0.2 μg/ml drug concentrations. In parallel, other antifungal agents such as caspofungin (100 to 0.1 μg/ml) and amphotericin B (240 μg/ml to 0.225 μg/ml) was also prepared as describe above. A total of 100 μl of drug solution was added to the microtiter plate containing Candida biofilms. Biofilms were then incubated at 37° C. for 24 h with the antifungals and afterwards metabolic activity of fungal cells was determined by the XTT [2,3-bis(2-methoxy-4-nitro-5-sulfophenyl)-2H-tetrazolium-5-carboxanilide sodium salt] assay (17, 28). Candida biofilm MIC90 was defined as the lowest drug concentration with 90% reduction in opacity compared with the drug free control. Each experiment was repeated three times with four replicates.

Structures are written as SMILES.

As to `CN(C)c1ccc(/C=C/c2cc(C(C)(C)C)[o+]c(C(C)(C)C)c2)cc1.[O-][Cl+3]([O-])([O-])[O-]` [SM21], the Cytotoxicity entry (in the data set with Vero cell line; in data set [2]; in the data set on human monocytes; in the data set on human oral keratinocytes) was “no cytotoxicity” each time. Also, the “Concentration acting as Y-Hi” value with C. albicans (10^4 cells/ml of C. albicans) was 0.025 µg/mL. Further, the “Y-Hi (yeast-to-hypha inhibitory activity)” value with C. albicans (C. albicans 10^4 cells/ml) is 0.025; in the data set on C. albicans (C. albicans 10^5 cells/ml), 0.5; in the data set on C. albicans (C. albicans 10^6 cells/ml) it was 0.1; in the data set with C. albicans (C. albicans 10^7 cells/ml) it was 0.2. Further, in the data set on C. albicans (incubated with SM21 at Y-Hi concentration, serum, Lee's medium, Spider medium, 37° C.), the “Morphology of C. albicans under hyphal inducing conditions” value is “yeast morphology”. Further, the “Active concentration (MIC by XTT reduction assay) against mixed species biofilms” value in data set [1] stood at 25 µg/mL. Moreover, the “Susceptibility (MIC90)” value with C. glabrata worked out at 1.6 µg/mL. Further, in the data set with C. albicans biofilms (24 h C. albicans biofilms, 24 h drug exposure, XTT), the “Biofilm MIC90” value came out at 3.2 µg/mL. Further, the “Minimum inhibitory concentration of 48 h Candida biofilms” value with C. albicans biofilms (48 h C. albicans biofilms) is 25 µg/mL.
